The text below walks through data of US5294553A, “Method for the gravimetric determination of oil and grease” (priority 1993, dated 1994).

The conditions of series [1]: cited from earlier work.
The conditions of series [2]: Table 1A, cited from earlier work.
For series [3] the following is noted: cited from earlier work. This is another data set of the same source.
The test system of another series is Rat. As to conditions: inhalation, Table 1B; cited from earlier work.
The conditions of series [4]: cited from earlier work. This is another data set of the same source.
The nature of series [5]: Amount of No. 6 Fuel dissolved. The class given is physicochemical. The following applies: for Amount of No. 6 Fuel Dissolved: Table 1B.

The structures appear in SMILES notation. Where two headings read alike, the source gives them in different places. A value given as a limit tells only on which side of the number the result lay.

For the compound `CCSC` [Ethyl methyl sulfide], the “ε, Dielectric Constant” value in series [1] (Table 1A) is recorded as approximately 5.72. For the same compound, in series [2] (in words), the “Sol. in Water” value is recorded as “V. sl. sol”. Besides, the “Boil Pt.” value in series [3] (Table 1A) was 66 °C.

As for `S=C=S` [Carbon disulfide], the “ε, Dielectric Constant” value in series [1] (Table 1A) was 2.64. In addition, the “Boil Pt.” value in series [3] (Table 1A) is 46 °C.

In the case of `C=CC(=O)OCC` [Ethyl acrylate], the “Boil Pt.” value in series [3] (Table 1A) is 99 °C.

As for `CCC(C)=O` [Butanone], the “ε, Dielectric Constant” value in series [1] (Table 1A) is 18.5. Also, the “Sol. in Water” value in series [2] (in words) was “sol”.

For the compound `C=COC(C)=O` [Vinyl acetate], the “Sol. in Water” value in series [2] (in words) was “sl. sol”. In addition, the “Boil Pt.” value in series [3] (Table 1A) was 72 °C.

With `ClC(Cl)Cl` [Chloroform], the “ε, Dielectric Constant” value in series [1] (-20° C., Table 1B) is listed as 4.80; in series [1] (Table 1A), 4.81. Besides, in series [2] (in words), the “Sol. in Water” value is “Vsl. sol”. In addition, the “LC50(ihl) -Rat” value with Rat was 8,000 ppm. Further, the “Boil Pt.” value in series [3] (Table 1A) and in series [3] (Table 1B) was 60 °C throughout.

For `ClCCl` [Methyl chloride], the “Boil Pt.” value in series [3] (Table 1B) was 40 °C.

Take `CSC` [Methyl sulfide]: the “ε, Dielectric Constant” value in series [1] (-20° C., Table 1B) was 6.2; in series [1] (Table 1A), 6.2. The “Sol. in Water” value in series [2] (in words) is listed as “sl. sol”. For the same compound, the “Boil Pt.” value in series [3] (Table 1A) and in series [3] (Table 1B) was 37 °C in each case.

In the case of `CCCCCC` [Hexane, n-hexane], in series [1] (Table 1A), the “ε, Dielectric Constant” value is given as 1.89. For the same compound, the “Sol. in Water” value in series [2] (in words) is “insol”. Besides, the “adverse effects on absorption through the skin” value in series [4] (nervous system) is “can be absorbed through the skin causing adverse effects to the nervous system, including a lack of feeling in the extremities and dizziness”. Further, the “solubility of No. 6 oil, in words” value in series [5] (compared with hexane/methyl tertiary-butyl ether (80:20 v/v)) was “much less soluble in hexane”.

As to `C1=CCCC1` [Cyclopentene], the “ε, Dielectric Constant” value in series [1] (Table 1A) was 2.20. Further, the “Boil Pt.” value in series [3] (Table 1A) is less than 49 °C.

`COC(C)(C)C` [Methyl t-Butyl ether, methyl tertiary-butyl ether]: the “ε, Dielectric Constant” value in series [1] (-20° C., Table 1B) was 4.0; in series [1] (Table 1A), “ca. 4.00”. The “Sol. in Water” value in series [2] (in words) is listed as “sl. sol”. Moreover, the “Boil Pt.” value in series [3] (Table 1A) and in series [3] (Table 1B) was 55 °C in each case. In addition, in series [5], the “Amount of No. 6 Fuel Dissolved” value is listed as 99.74%.

Consider `C1=CCCCC1` [Cyclohexene], for which the “ε, Dielectric Constant” value in series [1] (Table 1A) is recorded as 2.20. Also, in series [2] (in words), the “Sol. in Water” value is “sl. sol”. Also, the “Boil Pt.” value in series [3] (Table 1A) is 82 °C.

`CCOCC` [Ethyl ether]: in series [1] (Table 1A), the “ε, Dielectric Constant” value was 4.34. In series [2], the “Sol. in Water” value is reported as 7.5 g/100 g. In addition, the “Boil Pt.” value in series [3] (Table 1A) was 34.6 °C.

As to `c1ccccc1` [Benzene], the “ε, Dielectric Constant” value in series [1] (Table 1A) is recorded as 2.27. Also, in series [2] (in words), the “Sol. in Water” value is listed as “sl. sol”.

For the compound `c1ccsc1` [Thiophene], in series [1] (Table 1A), the “ε, Dielectric Constant” value was 2.76. Besides, the “Sol. in Water” value in series [2] (in words) is “sl. sol”. For the same compound, in series [3] (Table 1A), the “Boil Pt.” value is 83 °C.

Consider `ClC(Cl)(Cl)Cl` [Carbon tetrachloride], for which the “ε, Dielectric Constant” value is 2.238 in series [1] (-20° C., Table 1B) and 2.24 in series [1] (Table 1A). Further, the “Sol. in Water” value in series [2] (in words) is “Vsl. sol”. Also, the “LC50(ihl) -Rat” value in the series on Rat was 4,000 ppm. The “Boil Pt.” value in series [3] (Table 1A) and in series [3] (Table 1B) was 76 °C throughout.

With `CCSCC` [Ethyl sulfide], the “ε, Dielectric Constant” value in series [1] (Table 1A) was 5.72. The “Sol. in Water” value in series [2] (in words) is listed as “V. sl. sol”. For the same compound, the “Boil Pt.” value in series [3] (Table 1A) was 91 °C.

In the case of `FC(F)(Cl)C(F)(Cl)Cl` [FREON ®, 1,1,2-trichloro-1,2,2-trifluoroethane], the “Sol. in Water” value in series [2] (in words) is reported as “insol”. Further, the “Boil Pt.” value in series [3] (Table 1A) and in series [3] (Table 1B) was 50 °C each time. The “Amount of No. 6 Fuel Dissolved” value in series [5] is recorded as 41.01%.

On to `C=CCCCCC` [Heptene-1], for which the “ε, Dielectric Constant” value in series [1] (Table 1A) is “ca. 2.05”. Moreover, the “Sol. in Water” value in series [2] (in words) is recorded as “ca. sl. sol”. Also, the “Boil Pt.” value in series [3] (Table 1A) is 93 °C.

As to `CCOC(C)=O` [Ethyl acetate], the “ε, Dielectric Constant” value in series [1] (-20° C., Table 1B) is given as 6.02; in series [1] (Table 1A) it was 6.02. The “Sol. in Water” value in series [2] (in words) is listed as “sl. sol”. Further, in the series with Rat, the “LC50(ihl) -Rat” value is recorded as 1,600 ppm. Further, the “Hazards, Comments” value in series [4] (Table 1A, code numbers) was 44. Further, the “Boil Pt.” value in series [3] (Table 1A) and in series [3] (Table 1B) was 77 °C in each case. For the same compound, the “Amount of No. 6 Fuel Dissolved” value in series [5] is reported as 31.71%.

On to `C=CCCCC` [Hexene-1], for which the “ε, Dielectric Constant” value in series [1] (Table 1A) is “ca. 2.05”. The “Sol. in Water” value in series [2] (in words) is “ca. sl. sol”. Moreover, the “Boil Pt.” value in series [3] (Table 1A) was 63 °C.

Turning to `C1CCCC1` [Cyclopentane], the “ε, Dielectric Constant” value in series [1] (Table 1A) is 1.965. The “Sol. in Water” value in series [2] (in words) was “sl. sol”. In series [3] (Table 1A), the “Boil Pt.” value is 49 °C.

Turning to `C=CCCC` [Pentene-1], the “ε, Dielectric Constant” value in series [1] (Table 1A) was 2.10. Further, the “Sol. in Water” value in series [2] was 0.04%. Also, in series [3] (Table 1A), the “Boil Pt.” value is 37 °C.

Regarding `CC1CCCC1` [Methyl cyclopentane], the “Sol. in Water” value in series [2] (in words) is reported as “V. sl. sol”. Besides, the “Boil Pt.” value in series [3] (Table 1A) is 72 °C.

With `c1ccoc1` [Furan], the “Sol. in Water” value in series [2] (in words) is “sl. sol”. For the same compound, in series [3] (Table 1A), the “Boil Pt.” value was 32 °C.

On to `C=COC=C` [Vinyl ether], for which, in series [1] (Table 1A), the “ε, Dielectric Constant” value is given as 3.94. The “Sol. in Water” value in series [2] (in words) is “sl. sol”. In addition, the “Boil Pt.” value in series [3] (Table 1A) is 28 °C.

For the compound `CO` [methyl alcohol], the “dielectric constant ε” value in series [1] (alcohols) was 31.

As to `ClCCl` [Methylene Chloride], the “ε, Dielectric Constant” value in series [1] (Table 1A) is on record as 9.08. Besides, the “Boil Pt.” value in series [3] (Table 1A) is 40.2 °C.
